Reference: the kinase profiling compilation of Christmann-Franck et al. (2016)

Columns and labels:
Assay in all cases: radiometric filter-binding kinase assay, Kinase HotSpot
Conditions in all cases: compound 0.5 µM; ATP 10 µM
[1] = biological target: ADRBK2 (human) (UniProt P35626)
[2] = biological target: AKT3 (human) (UniProt Q9Y243)
[3] = biological target: ALK (human) (UniProt Q9UM73)
[4] = biological target: CAMK1D (human) (UniProt Q8IU85)
[5] = biological target: CDC42BPB (human) (UniProt Q9Y5S2)
[6] = biological target: CDK5 CDK5R1 p35 (human) (UniProt Q00535+Q15078)
[7] = biological target: CDK9 CCNT1 (human) (UniProt P50750+O60563)
[8] = biological target: CHUK (human) (UniProt O15111)
[9] = biological target: CLK3 (human) (UniProt P49761)
[10] = biological target: CSNK1E (human) (UniProt P49674)
[11] = biological target: CSNK2A2 (human) (UniProt P19784)
[12] = biological target: EPHA2 (human) (UniProt P29317)
[13] = biological target: EPHA5 (human) (UniProt P54756)
[14] = biological target: ERBB4 (human) (UniProt Q15303)
[15] = biological target: FGFR4 (human) (UniProt P22455)
[16] = biological target: GRK4 (human) (UniProt P32298)
[17] = biological target: HIPK3 (human) (UniProt Q9H422)
[18] = biological target: IKBKB (human) (UniProt O14920)
[19] = biological target: MAP3K11 (human) (UniProt Q16584)
[20] = biological target: MAPK1 (human) (UniProt P28482)
[21] = biological target: MAPK12 (human) (UniProt P53778)
[22] = biological target: MAPK13 (human) (UniProt O15264)
[23] = biological target: MAPK3 (human) (UniProt P27361)
[24] = biological target: MARK4 (human) (UniProt Q96L34)
[25] = biological target: NLK (human) (UniProt Q9UBE8)
[26] = biological target: NTRK1 (human) (UniProt P04629)
[27] = biological target: NTRK2 (human) (UniProt Q16620)
[28] = biological target: NTRK3 (human) (UniProt Q16288)
[29] = biological target: PAK3 (human) (UniProt O75914)
[30] = biological target: PKN2 (human) (UniProt Q16513)
[31] = biological target: PRKACA (human) (UniProt P17612)
[32] = biological target: PRKCE (human) (UniProt Q02156)
[33] = biological target: PRKCG (human) (UniProt P05129)
[34] = biological target: PRKG1 (human) (UniProt Q13976)
[35] = biological target: PRKG2 (human) (UniProt Q13237)
[36] = biological target: RAF1 (human) (UniProt P04049)
[37] = biological target: ROCK2 (human) (UniProt O75116)
[38] = biological target: STK11 (human) (UniProt Q15831)
[39] = biological target: TGFBR2 (human) (UniProt P37173)
[40] = biological target: TSSK1B (human) (UniProt Q9BXA7)
[41] = biological target: ULK1 (human) (UniProt O75385)
[42] = biological target: WNK3 (human) (UniProt Q9BYP7)

Chain of PRKG1 (human) (Q13976 whole entry, looked up): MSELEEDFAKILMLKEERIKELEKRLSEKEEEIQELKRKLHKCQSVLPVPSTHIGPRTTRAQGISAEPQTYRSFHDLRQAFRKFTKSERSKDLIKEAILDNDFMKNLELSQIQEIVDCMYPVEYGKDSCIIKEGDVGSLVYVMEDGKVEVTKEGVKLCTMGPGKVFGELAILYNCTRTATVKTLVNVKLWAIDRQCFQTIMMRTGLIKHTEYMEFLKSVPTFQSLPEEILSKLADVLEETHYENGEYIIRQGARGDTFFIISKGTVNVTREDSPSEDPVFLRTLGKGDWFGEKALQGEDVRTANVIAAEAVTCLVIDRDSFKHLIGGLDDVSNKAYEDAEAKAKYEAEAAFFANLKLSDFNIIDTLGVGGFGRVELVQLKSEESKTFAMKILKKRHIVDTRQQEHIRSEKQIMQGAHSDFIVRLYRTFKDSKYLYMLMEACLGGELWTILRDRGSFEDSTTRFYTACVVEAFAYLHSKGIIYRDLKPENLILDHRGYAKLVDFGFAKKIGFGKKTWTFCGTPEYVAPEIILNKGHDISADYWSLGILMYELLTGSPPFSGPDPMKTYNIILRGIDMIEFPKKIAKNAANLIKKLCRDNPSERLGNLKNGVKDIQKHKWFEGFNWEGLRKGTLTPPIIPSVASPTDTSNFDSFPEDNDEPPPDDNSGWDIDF
Chain of RAF1 (human) (P04049 whole entry, looked up): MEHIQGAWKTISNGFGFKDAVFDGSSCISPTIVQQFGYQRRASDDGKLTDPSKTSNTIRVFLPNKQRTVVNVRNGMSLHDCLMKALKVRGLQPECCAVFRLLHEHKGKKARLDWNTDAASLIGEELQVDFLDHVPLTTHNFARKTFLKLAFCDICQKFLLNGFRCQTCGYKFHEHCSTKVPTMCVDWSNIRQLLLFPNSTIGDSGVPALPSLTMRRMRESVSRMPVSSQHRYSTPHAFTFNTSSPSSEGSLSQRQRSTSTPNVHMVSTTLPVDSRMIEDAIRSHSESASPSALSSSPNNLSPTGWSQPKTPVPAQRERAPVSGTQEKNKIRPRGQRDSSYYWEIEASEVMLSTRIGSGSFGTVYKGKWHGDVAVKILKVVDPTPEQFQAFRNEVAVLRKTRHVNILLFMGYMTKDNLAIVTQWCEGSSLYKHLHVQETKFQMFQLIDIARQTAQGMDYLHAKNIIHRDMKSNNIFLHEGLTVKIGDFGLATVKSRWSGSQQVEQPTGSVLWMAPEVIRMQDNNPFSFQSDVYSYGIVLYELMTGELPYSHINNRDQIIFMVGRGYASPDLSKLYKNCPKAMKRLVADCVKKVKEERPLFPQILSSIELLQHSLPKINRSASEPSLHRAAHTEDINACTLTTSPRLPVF
Chain of ERBB4 (human) (Q15303 whole entry, looked up): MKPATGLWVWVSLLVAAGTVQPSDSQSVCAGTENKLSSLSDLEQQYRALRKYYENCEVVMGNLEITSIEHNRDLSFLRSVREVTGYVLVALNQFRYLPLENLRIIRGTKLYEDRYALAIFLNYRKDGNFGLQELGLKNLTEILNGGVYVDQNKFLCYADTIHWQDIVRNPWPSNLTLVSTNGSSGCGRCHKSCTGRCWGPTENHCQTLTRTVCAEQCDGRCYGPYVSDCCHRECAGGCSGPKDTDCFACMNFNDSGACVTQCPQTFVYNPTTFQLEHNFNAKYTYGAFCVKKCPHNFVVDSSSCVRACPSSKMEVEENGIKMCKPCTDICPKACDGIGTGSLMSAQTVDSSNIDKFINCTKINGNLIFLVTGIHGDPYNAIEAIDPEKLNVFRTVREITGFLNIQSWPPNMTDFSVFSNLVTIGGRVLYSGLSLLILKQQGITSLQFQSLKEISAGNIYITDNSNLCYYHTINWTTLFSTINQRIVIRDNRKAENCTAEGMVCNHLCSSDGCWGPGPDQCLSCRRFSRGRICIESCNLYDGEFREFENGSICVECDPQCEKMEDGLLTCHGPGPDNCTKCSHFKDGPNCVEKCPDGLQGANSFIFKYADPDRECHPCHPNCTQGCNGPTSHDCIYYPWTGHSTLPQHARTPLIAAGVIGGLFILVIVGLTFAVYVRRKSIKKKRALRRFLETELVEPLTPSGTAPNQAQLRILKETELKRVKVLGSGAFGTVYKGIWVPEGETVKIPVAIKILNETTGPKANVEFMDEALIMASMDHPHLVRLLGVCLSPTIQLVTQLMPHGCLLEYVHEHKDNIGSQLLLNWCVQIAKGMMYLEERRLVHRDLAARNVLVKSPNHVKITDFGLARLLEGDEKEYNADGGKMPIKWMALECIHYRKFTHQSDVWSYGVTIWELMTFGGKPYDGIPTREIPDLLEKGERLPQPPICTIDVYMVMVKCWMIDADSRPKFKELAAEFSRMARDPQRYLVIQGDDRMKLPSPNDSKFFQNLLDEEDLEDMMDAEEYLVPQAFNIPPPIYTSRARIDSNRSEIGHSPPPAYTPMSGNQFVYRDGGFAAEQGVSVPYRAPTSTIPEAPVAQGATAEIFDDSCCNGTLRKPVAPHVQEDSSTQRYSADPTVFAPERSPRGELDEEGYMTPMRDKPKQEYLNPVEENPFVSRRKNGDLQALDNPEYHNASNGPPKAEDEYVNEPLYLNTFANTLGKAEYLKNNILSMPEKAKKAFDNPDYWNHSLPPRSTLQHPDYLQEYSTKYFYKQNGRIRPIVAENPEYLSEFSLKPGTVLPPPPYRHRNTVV
Chain of CSNK2A2 (human) (P19784 whole entry, looked up): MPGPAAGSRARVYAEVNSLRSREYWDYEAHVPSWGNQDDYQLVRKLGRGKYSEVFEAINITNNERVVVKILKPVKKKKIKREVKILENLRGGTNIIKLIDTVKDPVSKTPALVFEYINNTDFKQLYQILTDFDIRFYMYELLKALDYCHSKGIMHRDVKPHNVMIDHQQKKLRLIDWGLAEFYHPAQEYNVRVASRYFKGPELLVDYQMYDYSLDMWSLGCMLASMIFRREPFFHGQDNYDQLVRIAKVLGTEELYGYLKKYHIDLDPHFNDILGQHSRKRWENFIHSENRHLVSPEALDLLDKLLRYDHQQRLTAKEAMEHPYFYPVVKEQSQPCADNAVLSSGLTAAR
Chain of STK11 (human) (Q15831 whole entry, looked up): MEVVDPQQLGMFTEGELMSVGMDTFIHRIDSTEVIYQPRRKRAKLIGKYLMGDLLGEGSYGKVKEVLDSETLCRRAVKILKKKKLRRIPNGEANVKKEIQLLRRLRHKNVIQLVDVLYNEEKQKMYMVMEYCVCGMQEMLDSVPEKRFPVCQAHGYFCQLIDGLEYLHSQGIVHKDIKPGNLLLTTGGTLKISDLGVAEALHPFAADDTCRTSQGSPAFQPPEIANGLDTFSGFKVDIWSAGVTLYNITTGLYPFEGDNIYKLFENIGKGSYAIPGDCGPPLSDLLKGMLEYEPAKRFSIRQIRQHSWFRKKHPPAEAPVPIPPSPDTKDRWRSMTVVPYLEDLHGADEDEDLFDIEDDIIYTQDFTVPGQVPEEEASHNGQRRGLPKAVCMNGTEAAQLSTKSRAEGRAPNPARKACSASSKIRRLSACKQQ
Chain of CSNK1E (human) (P49674 whole entry, looked up): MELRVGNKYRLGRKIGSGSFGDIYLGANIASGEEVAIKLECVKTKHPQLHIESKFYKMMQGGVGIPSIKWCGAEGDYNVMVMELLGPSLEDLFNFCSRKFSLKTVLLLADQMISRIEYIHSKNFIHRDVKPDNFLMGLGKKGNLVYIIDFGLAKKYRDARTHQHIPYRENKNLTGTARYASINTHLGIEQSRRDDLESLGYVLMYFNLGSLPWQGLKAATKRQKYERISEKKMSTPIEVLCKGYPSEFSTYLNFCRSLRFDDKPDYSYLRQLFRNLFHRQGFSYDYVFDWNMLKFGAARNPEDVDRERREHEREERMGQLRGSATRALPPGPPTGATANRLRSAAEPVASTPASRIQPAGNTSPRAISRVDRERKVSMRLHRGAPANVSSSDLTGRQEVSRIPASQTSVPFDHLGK
Chain of MAP3K11 (human) (Q16584 whole entry, looked up): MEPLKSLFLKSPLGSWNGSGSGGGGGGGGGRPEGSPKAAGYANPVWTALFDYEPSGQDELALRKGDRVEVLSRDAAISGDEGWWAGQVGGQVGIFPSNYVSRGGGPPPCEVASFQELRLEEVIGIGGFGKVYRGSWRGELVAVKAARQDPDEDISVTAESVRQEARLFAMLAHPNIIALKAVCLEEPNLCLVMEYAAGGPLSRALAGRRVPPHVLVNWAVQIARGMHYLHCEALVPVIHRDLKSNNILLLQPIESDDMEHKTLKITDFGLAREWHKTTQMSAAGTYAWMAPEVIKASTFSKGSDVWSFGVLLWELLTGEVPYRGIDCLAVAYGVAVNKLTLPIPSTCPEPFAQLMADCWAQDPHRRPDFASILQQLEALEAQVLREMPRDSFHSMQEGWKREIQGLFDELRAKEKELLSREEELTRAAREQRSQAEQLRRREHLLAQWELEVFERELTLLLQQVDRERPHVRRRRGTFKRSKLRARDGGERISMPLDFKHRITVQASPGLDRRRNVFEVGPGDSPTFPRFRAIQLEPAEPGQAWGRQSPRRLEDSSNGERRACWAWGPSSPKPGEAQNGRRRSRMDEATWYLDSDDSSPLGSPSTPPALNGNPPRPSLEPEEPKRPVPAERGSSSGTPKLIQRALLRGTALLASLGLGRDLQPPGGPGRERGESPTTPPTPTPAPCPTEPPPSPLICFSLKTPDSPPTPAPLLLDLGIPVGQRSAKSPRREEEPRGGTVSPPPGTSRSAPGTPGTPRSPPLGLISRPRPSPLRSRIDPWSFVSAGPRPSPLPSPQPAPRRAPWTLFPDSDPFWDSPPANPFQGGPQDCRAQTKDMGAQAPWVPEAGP
Chain of MAPK13 (human) (O15264 whole entry, looked up): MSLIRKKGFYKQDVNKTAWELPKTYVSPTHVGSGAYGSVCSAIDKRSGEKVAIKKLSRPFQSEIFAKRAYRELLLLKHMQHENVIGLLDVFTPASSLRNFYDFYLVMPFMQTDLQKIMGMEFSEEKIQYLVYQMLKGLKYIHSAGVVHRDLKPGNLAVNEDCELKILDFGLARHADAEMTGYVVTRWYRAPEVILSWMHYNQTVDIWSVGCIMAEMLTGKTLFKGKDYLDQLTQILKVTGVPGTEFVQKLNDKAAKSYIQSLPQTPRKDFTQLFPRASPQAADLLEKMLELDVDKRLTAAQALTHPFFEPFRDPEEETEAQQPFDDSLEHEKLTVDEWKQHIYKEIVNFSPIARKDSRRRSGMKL

For `CO[C@H]1CC2CC[C@@H](C)[C@@](O)(O2)C(=O)C(=O)N2CCCC[C@H]2C(=O)OC([C@H](C)C[C@@H]2CC[C@@H](O)[C@H](OC)C2)CC(=O)[C@H](C)/C=C(\C)[C@@H](O)[C@@H](OC)C(=O)[C@H](C)C[C@H](C)/C=C/C=C/C=C/1C` (some centres undefined), the residual activity [1] was 98%, the residual activity [2] was 97.8% and the residual activity [3] was 115%. It also gave a residual activity [4] of 105%, a residual activity [5] of 103% and a residual activity [6] of 99.5%. For the same compound, the residual activity [7] was 87%, the residual activity [8] was 110% and the residual activity [9] was 94.4%. It also gave a residual activity [10] of 102%, a residual activity [11] of 94.2% and a residual activity [12] of 107%. The residual activity [13] was 94.7%, the residual activity [14] was 88.7% and the residual activity [15] was 76.6%. It also gave a residual activity [16] of 96.1%, a residual activity [17] of 107% and a residual activity [18] of 109%. For the same compound, the residual activity [19] was 98.5%, the residual activity [20] was 101% and the residual activity [21] was 107%. It also gave a residual activity [22] of 121%, a residual activity [23] of 104% and a residual activity [24] of 99.1%. It also gave a residual activity [25] of 97.3%, a residual activity [26] of 98.4% and a residual activity [27] of 106%. The residual activity [28] was 103%, the residual activity [29] was 102% and the residual activity [30] was 89.8%. For the same compound, the residual activity [31] was 99.8%, the residual activity [32] was 105% and the residual activity [33] was 106%. The residual activity [34] was 91%, the residual activity [35] was 91.9% and the residual activity [36] was 97.2%. It also gave a residual activity [37] of 108%, a residual activity [38] of 91.1% and a residual activity [39] of 136%. The residual activity [40] was 103%, the residual activity [41] was 87.9% and the residual activity [42] was 102%.

With `Nc1cccc(-c2cc3c(Oc4cccc(O)c4)ncnc3[nH]2)c1` the residual activity [1] was 101%, the residual activity [2] was 96.2% and the residual activity [3] was 80.9%. It also gave a residual activity [4] of 97.7%, a residual activity [5] of 93.5% and a residual activity [6] of 72.2%. The residual activity [7] was 63.2%, the residual activity [8] was 102% and the residual activity [9] was 74%. For the same compound, the residual activity [10] was 92.9%, the residual activity [11] was 96.5% and the residual activity [12] was 48.2%. It also gave a residual activity [13] of 41.7%, a residual activity [14] of 75.8% and a residual activity [15] of 45.1%. The residual activity [16] was 94.7%, the residual activity [17] was 94% and the residual activity [18] was 90.8%. For the same compound, the residual activity [19] was 52.4%, the residual activity [20] was 114% and the residual activity [21] was 88.6%. For the same compound, the residual activity [22] was 104%, the residual activity [23] was 86.9% and the residual activity [24] was 68.8%. The residual activity [25] was 87.7%, the residual activity [26] was 90.5% and the residual activity [27] was 95.5%. For the same compound, the residual activity [28] was 63.3%, the residual activity [29] was 79.8% and the residual activity [30] was 72%. The residual activity [31] was 92.3%, the residual activity [32] was 97.4% and the residual activity [33] was 88.1%. The residual activity [34] was 103%, the residual activity [35] was 108% and the residual activity [36] was 85.9%. It also gave a residual activity [37] of 94.5%, a residual activity [38] of 12.4% and a residual activity [39] of 42.6%. It also gave a residual activity [40] of 91.1%, a residual activity [41] of 143% and a residual activity [42] of 88.5%.
